From BigSolDB 2.1

COC(=O)/C=C(\C)NC(C(=O)[O-])c1ccc(O)cc1.[K+] (stereo not given)
solubility (mole fraction) (in ethanol, 278.22 K): 0.000319 | solubility (mole fraction) (in ethanol, 283.26 K): 0.000342 | solubility (mole fraction) (in ethanol, 288.21 K): 0.000369 | solubility (mole fraction) (in ethanol, 293.04 K): 0.0004 | solubility (mole fraction) (in ethanol, 298.07 K): 0.000438 | solubility (mole fraction) (in ethanol, 303.29 K): 0.000481 | solubility (mole fraction) (in ethanol, 308.21 K): 0.000527 | solubility (mole fraction) (in ethanol, 313.09 K): 0.000577 | solubility (mole fraction) (in ethanol, 318.23 K): 0.000635 | solubility (mole fraction) (in ethanol, 323.11 K): 0.000694 | solubility (mole fraction) (in methanol, 278.24 K): 0.00281 | solubility (mole fraction) (in methanol, 283.28 K): 0.00303 | solubility (mole fraction) (in methanol, 288.04 K): 0.00325 | solubility (mole fraction) (in methanol, 293.35 K): 0.0035 | solubility (mole fraction) (in methanol, 298.31 K): 0.00375 | solubility (mole fraction) (in methanol, 302.97 K): 0.00398 | solubility (mole fraction) (in methanol, 308.19 K): 0.00426 | solubility (mole fraction) (in methanol, 313.32 K): 0.00453 | solubility (mole fraction) (in methanol, 318.11 K): 0.0048 | solubility (mole fraction) (in methanol, 322.45 K): 0.00505
